11 molecules from US7858613B2, “Substituted benzo-condensed cycloheptanone derivatives and their use for producing drugs” (Gruenenthal GmbH, priority 2005, dated 2010) can be followed below.

The target of test [1] is T1, human CB2 receptor (Homo sapiens, UniProt P34972).
T1 construct: expressed in transfected cells; host or cells: HEK-293EBNA cells (membranes)
Briefly: Affinity for cannabinoid receptor CB2, [3H]-CP 55,940 displacement on HEK-293EBNA membranes. The note with it: 10 μM test substance; 0.33 nM [3H]-CP 55,940; percent inhibition of specific binding. The text has this:
VI. Determination of the Affinity for the Cannabinoid Receptor CB2 (CB2 Receptor):
To determine the affinity of the inventive compounds for the cannabinoid receptor, membranes from human recombinant HEK-293EBNA cells were used, which had been transfected stably with the human CB2 receptor. The radioligand used was tritium-labeled 5-(1,1-dimethylheptyl)-2-(5-hydroxypropyl)cyclohexyl)-1-alpha,2-beta,5-alpha)phenol ([3]H—CP 55,940 with 103.4 Ci/mmol, 1 mCi/ml). The determination was effected in a test buffer composed of 50 mM Tris-HCl, 2.5 mM EDTA, 5 mM MgCl2 and 1.0 mg/ml of fatty acid-free BSA. The test substances were each dissolved in DMSO.
The affinity of the inventive compounds for the CB2 receptor is determined by their ability to displace [3]H—CP 55,940 from CB2 receptors in membranes from HEK-293EBNA cells. To this end, in each case 8 μg of the membranes (20 μl of a solution from membranes in a concentration of 400 μg/ml) are incubated in wells on a microtiter plate with a 0.33 nM solution of ^[3]H-CP […] (120 Ci/mmol) in a total volume of test buffer of 200 μl at 30° C. for 90 minutes.
Subsequently, either the test substances or WIN 55212-2 to determine the unspecific binding, in each case dissolved in DMSO, are added to the wells so as to result in each case in a concentration of the corresponding substances of 10 μM.
Incubation at 30° C. is continued for a further 40 minutes. The binding reaction was ended by rapid filtration through GF/C filter paper which had been treated with 0.05% PEI using a Brandel cell harvester with 96 wells. The filters are washed nine times with 0.5 ml of ice-cooled washing buffer ([…] Tris-HCl, 5 mM MgCl2, 2.5 mM EDTA, 2% BSA, pH 7.4), air-dried and placed in scintillation fluid, and the radioactivity is determined with the aid of a scintillation counter.
The percentage displacement of the radioactive ligand ^[3]H-CP 55,940 from its binding to the CB2 receptor is reported as percent inhibition of the specific binding.

Test [2] concerns the target T2, vanilloid receptor 1 (VR1/TRPV1) (Rattus norvegicus, UniProt O35433).
T2 construct: The spinal column is removed from beheaded rats; from tissue; host or cells: primary cells from rat dorsal root ganglia
In words: Functional study on vanilloid receptor 1 (VR1/TRPV1), FLIPR Ca2+ assay in rat dorsal root ganglia cells. It is filed as cell-based. The settings on record: test compound 10 μM, rat DRG cells; for inhibition at 10 µM: suppression of Ca2+ current after 100 nM capsaicin, read-out: VR1 (rat) (% inhibition compared to 10 μM CP). Here is the method: Preference may likewise be given to inventive compounds which, in the FLIPR assay, in a concentration of 10 μM, have an inhibition of the Ca^2+ ion current in dorsal root ganglia of rats of at least 10%, preferably of at least 30%, more preferably of at least 50%, even more preferably of at least 70%, even more preferably of at least 90%, compared to the maximum achievable inhibition of the Ca^2+ ion current with […] in a concentration of 10 μM.
In the FLIPR assay, the Ca^2+ current is quantified with the aid of a Ca^2+-sensitive dye (Fluo-4 type, Molecular Probes Europe BV, Leiden, the Netherlands) in the fluorescent imaging plate reader (FLIPR, Molecular Devices, Sunnyvale, USA), as described below.
I. Functional Study on the Vanilloid Receptor 1 (VR1/TRPV1 Receptor)
The agonistic or antagonistic action of the substances to be studied on the vanilloid receptor 1 (VR1/TRPV1) of the rat species can be determined with the following assay. In this assay, the Ca^2+ current through the receptor channel is quantified with the aid of a Ca^2+-sensitive dye (Fluo-4 type, Molecular Probes Europe BV, Leiden the Netherlands) in a fluorescent imaging plate reader (FLIPR, Molecular Devices, Sunnyvale, USA).
Cell culture plate: poly-D-lysine-coated, black 96-hole plates with a clear bottom (96 well black/clear plate, BD Biosciences, Heidelberg, Germany) are additionally coated with laminin (Gibco Invitrogen GmbH, Karlsruhe, Germany) by diluting laminin to a concentration of 100 μg/ml with PBS (Ca—Mg-free PBS, Gibco Invitrogen GmbH, Karlsruhe, Germany). Aliquots having a concentration of 100 μg/ml of laminin are withdrawn and stored at −20° C. The aliquots are diluted with PBS in a ratio of 1:10 to 10 μg/ml of laminin and in each case 50 μl of the solution are pipetted into a well of the cell culture plate. The cell culture plates are incubated at 37° C. for at least two hours, the supernatant solution is removed by suction and the wells are each washed twice with PBS. The coated cell culture plates are stored with supernatant PBS which is not removed until directly before the application of the cells.
The spinal column is removed from beheaded rats and placed directly into cold HBSS buffer (Hank's buffered saline solution, Gibco Invitrogen GmbH, Karlsruhe, Germany), i.e. placed in an ice bath, which has been admixed with 1% by volume of an AA solution (antibiotic/antimycotic solution, PAA, Pasching, Austria). The spinal column is severed longitudinally and removed from the spinal canal together with fasciae. Subsequently, the dorsal root ganglia (DRGs) are removed and in turn stored in cold HBSS buffer admixed with 1% by volume of an AA solution. The DRGs freed completely of blood residues and spinal nerves are in each case transferred to 500 μl of cold type 2 collagenase (PAA, Pasching, Austria) and incubated at 37° C. for 35 minutes. After addition of 2.5% by volume of trypsin (PAA, Pasching, Austria), incubation is continued at 37° C. for a further 10 minutes. After complete incubation, the enzyme solution is cautiously pipetted off and the remaining DRGs are each admixed with 500 μl of complete medium.
The DRGs are each suspended repeatedly, drawn through cannulas No. 1, No. 12 and No. 16 by means of a syringe and transferred to 50 ml Falcon tubes which are made up to 15 ml with complete medium. The contents of each Falcon tube are in each case filtered through a 70 μm Falcon filter insert and centrifuged at 1200 revolutions and room temperature for 10 minutes. The resulting pellet is in each case taken up in 250 μl of complete medium and the cell count is determined.
The number of cells in the suspension is adjusted to 3 times 10^5 per ml and in each case 150 μl of this suspension are added to one well of the cell culture plates coated as described above. In the incubator, the plates are left to stand at 37° C., 5% by volume of CO2 and 95% relative air humidity for two to three days. […]

In test [3] the target is T3, vanilloid receptor (VR1) (Homo sapiens, UniProt Q8NER1).
T3 construct: expressed in transfected cells; host or cells: CHO K1 cells (ECACC)
T3 sequence (Q8NER1 whole entry): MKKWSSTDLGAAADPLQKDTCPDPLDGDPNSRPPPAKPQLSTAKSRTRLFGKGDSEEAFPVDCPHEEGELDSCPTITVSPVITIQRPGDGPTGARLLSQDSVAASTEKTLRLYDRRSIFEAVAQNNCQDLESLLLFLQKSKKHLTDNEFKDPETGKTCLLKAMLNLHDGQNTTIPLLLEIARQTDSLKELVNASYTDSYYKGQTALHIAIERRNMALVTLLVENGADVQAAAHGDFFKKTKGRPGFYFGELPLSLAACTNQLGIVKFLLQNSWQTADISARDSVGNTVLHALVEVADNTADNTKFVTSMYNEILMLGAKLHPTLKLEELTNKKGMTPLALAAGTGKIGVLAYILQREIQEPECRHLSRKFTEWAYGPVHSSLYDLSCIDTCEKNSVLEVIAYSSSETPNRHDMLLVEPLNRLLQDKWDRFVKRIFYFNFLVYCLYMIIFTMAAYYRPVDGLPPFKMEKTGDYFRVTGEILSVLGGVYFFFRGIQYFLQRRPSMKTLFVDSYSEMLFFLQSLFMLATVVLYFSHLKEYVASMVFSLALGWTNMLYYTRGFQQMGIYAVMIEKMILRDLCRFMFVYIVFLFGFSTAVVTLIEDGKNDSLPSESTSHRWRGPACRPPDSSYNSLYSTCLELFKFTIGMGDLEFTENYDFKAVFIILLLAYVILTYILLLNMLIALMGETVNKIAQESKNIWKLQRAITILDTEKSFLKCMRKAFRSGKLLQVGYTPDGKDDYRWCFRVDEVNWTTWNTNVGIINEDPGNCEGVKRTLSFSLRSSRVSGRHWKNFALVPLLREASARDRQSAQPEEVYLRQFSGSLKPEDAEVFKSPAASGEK
Briefly: Functional study on vanilloid receptor (VR1), FLIPR Ca2+ assay in VR1-transfected CHO K1 cells. In kind it is cell-based. The note with it: test substance 10 μM; CHO K1 cells transfected with VR1; suppression of Ca2+ current after 100 nM capsaicin; read-out: VR1 (human) (% inhibition compared to 10 μM CP). An excerpt:
II. Functional Studies on the Vanilloid Receptor (VR1)
The agonistic or antagonistic action of the substances to be tested on vanilloid receptor (VR1) can also be determined with the assay which follows. In this assay, the Ca^2+ current through the channel is quantified with the aid of a Ca^2+-sensitive dye (Fluo-4 type, Molecular Probes, Europe BV, Leiden, the Netherlands) in a fluorescent imaging plate reader (FLIPR, Molecular Devices, Sunnyvale, USA).
Chinese hamster ovary cells (CHO K1 cells, European Collection of Cell Cultures (ECACC) Great Britain) are transfected stably with the VR1 gene. For functional studies, these cells are plated out onto poly-D-lysine-coated black 96-well plates with a clear bottom (BD Biosciences, Heidelberg, Germany) in a density of 25 000 cells/well. The cells are incubated overnight at 37° C. and 5% CO2 in a culture medium (Ham's Nutrient Mixture F12, 10% by volume of FCS (fetal calf serum), 18 μg/ml of L-proline). The next day, the cells are incubated with Fluo-4 (Fluo-4 2 μM, Pluronic F127 0.01% by volume, Molecular Probes in HBSS (Hank's buffered saline solution), Gibco Invitrogen GmbH, Karlsruhe, Germany) at 37° C. for 30 minutes. Subsequently, the plates are washed 3 times with HBSS buffer and, after a further incubation of 15 minutes at room temperature, used for Ca^2+ measurement in FLIPR. The Ca^2+-dependent fluorescence is measured before and after addition of the substances to be studied (wavelength λex=488 nm, λem=540 nm). The quantification is effected by measuring the highest fluorescence intensity (FC, fluorescence counts) over the time.
The FLIPR protocol consists of 2 substance additions. First, the substances to be tested (10 μM) are pipetted onto the cells and the Ca^2+ current is compared with the control (capsaicin 10 μM) (% activation based on the Ca^2+ signal after addition of 10 μM capsaicin). After incubation for 5 minutes, 100 nM capsaicin is applied and the current of Ca^2+ is likewise determined.
Desensitizing agonists and antagonists led to a suppression of the Ca^2+ current. % inhibition is calculated compared to the maximum achievable inhibition with 10 μM capsazepine.

T2 sequence (O35433 whole entry): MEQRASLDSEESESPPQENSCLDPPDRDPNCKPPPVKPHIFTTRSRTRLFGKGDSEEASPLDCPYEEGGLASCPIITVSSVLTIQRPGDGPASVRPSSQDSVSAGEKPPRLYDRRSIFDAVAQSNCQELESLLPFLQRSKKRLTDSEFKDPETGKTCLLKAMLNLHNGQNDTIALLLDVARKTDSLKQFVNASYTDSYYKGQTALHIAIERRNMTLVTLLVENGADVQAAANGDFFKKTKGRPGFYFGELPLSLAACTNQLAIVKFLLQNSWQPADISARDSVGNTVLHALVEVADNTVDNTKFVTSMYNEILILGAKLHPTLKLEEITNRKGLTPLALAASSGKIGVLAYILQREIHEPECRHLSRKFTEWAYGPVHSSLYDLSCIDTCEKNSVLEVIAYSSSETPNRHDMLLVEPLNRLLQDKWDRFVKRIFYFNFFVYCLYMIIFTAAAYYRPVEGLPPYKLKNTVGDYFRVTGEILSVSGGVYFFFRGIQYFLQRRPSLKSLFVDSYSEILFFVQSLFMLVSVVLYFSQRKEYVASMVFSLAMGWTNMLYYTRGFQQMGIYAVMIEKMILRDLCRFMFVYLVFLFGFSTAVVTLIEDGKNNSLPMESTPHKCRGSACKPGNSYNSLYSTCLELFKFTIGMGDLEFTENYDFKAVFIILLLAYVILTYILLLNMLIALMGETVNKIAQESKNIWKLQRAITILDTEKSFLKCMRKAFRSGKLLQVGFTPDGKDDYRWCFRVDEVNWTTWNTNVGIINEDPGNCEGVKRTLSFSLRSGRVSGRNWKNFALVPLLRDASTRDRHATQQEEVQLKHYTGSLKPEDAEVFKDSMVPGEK
T1 sequence (P34972 whole entry): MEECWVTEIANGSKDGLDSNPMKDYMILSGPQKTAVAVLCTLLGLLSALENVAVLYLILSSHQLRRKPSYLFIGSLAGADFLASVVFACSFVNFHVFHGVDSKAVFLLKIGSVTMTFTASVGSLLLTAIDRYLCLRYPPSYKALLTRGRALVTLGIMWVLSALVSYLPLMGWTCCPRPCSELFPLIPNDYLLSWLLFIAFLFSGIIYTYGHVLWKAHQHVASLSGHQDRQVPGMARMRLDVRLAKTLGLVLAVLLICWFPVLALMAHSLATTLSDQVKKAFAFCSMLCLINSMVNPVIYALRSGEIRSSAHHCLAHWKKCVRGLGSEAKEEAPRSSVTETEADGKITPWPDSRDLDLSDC

`O=C(Nc1ccc(F)cc1F)OCC1(COC(=O)Nc2ccc(F)cc2F)CCOc2ccccc2C1=O` [Example Compound 16, 2,4-Difluorophenylcarbamic acid 4-(2,4-difluorophenylcarbamoyloxymethyl)-5-oxo-2,3,4,5-tetrahydrobenzo[b]oxepin-4-ylmethyl ester]: in test [1], 10 µM produced 63.4% inhibition.
With `O=C1c2ccccc2SCCC1(CO)COC(=S)Nc1cccc(C(F)(F)F)c1` (stereo not drawn) [Example Compound 17, (3-Trifluoromethylphenyl)thiocarbamic acid O-(4-hydroxymethyl-5-oxo-2,3,4,5-tetrahydrobenzo[b]thiepin-4-ylmethyl)ester], the inhibition (commonly the drop in the measured response relative to a control, in per cent) at 10 µM in test [2] amounted to 46.6%; in test [1], 3.8%; in test [3], 17.1%.
Taken in the same sequence, the figures for `O=C(Nc1ccc(F)cc1F)OCC1(CO)CCSc2ccccc2C1=O` (stereo not drawn) [Example Compound 20, (2,4-Difluorophenyl)carbamic acid 4-hydroxymethyl-5-oxo-2,3,4,5-tetrahydro-benzo[b]thiepin-4-ylmethyl ester] were 17.1%, 41% and 21.8%.
In the same order, the values of `O=C(NC(=O)c1ccccc1)OCC1(COC(=O)NC(=O)c2ccccc2)CCOc2ccccc2C1=O` [Example Compound 19, Benzoylcarbamic acid 4-benzoylcarbamoyloxymethyl-5-oxo-2,3,4,5-tetrahydro-benzo[b]oxepin-4-ylmethyl ester] are 32.2%, 40.3% and 13.3%.
As for `O=C1c2ccccc2SCCC1(CO)COC(=S)Nc1ccccc1` (stereo not drawn) [Example Compound 9, Phenylthiocarbamic acid O-(4-hydroxymethyl-5-oxo-2,3,4,5-tetrahydro-benzo[b]thiepin-4-ylmethyl)ester], the inhibition at 10 µM in test [2] worked out at 52.8%; in test [1], 28.3%; in test [3], 51.3%.
In the case of `O=C(NC1CCCCC1)OCC1(CO)CCSc2ccccc2C1=O` (stereo not drawn) [Example Compound 6, Cyclohexylcarbamic acid 4-hydroxymethyl-5-oxo-2,3,4,5-tetrahydro-benzo[b]thiepin-4-ylmethyl ester], the inhibition at 10 µM in test [1] turned out to be 53.6%; in test [3], 26.7%.
`CCCCCNC(=O)OCC1(COC(=O)NCCCCC)CCSc2ccccc2C1=O` [Example Compound 14, pentylcarbamic acid 4-(pentylcarbamoyloxymethyl)-5-oxo-2,3,4,5-tetrahydrobenzo[b]thiepin-4-ylmethyl ester] had an inhibition at 10 µM in test [1] of 61.8%.
On the same count and under the same terms, then `CCCCCNC(=O)OCC1CCSc2ccccc2C1=O` (stereo not drawn) [Example Compound 1, Pentylcarbamic acid 5-oxo-2,3,4,5-tetrahydrobenzo[b]thiepin-4-ylmethyl ester], with 42.2%.
Consider `O=C1c2ccccc2SCCC1(CO)COC(=S)Nc1ccc(F)cc1F` (stereo not drawn) [Example Compound 21, (2,4-Difluorophenyl)thiocarbamic acid O-(4-hydroxymethyl-5-oxo-2,3,4,5-tetrahydrobenzo[b]thiepin-4-ylmethyl)ester], for which the inhibition at 10 µM in test [2] was found to be 34.6%; in test [3], 36.3%.
Consider `O=C1c2ccccc2CCCC1(CO)COC(=S)Nc1cccc(C(F)(F)F)c1` (stereo not drawn) [Example Compound 22, (3-Trifluoromethylphenyl)thiocarbamic acid O-(6-hydroxymethyl-5-oxo-6,7,8,9-tetrahydro-5H-benzocyclohepten-6-ylmethyl)ester], for which the “VR1 (rat) (% stimulation compared to 10 μM CP)” value in test [2] (Ca2+ signal relative to 10 μM capsaicin (CP)) was 77.9%. Besides, the inhibition at 10 µM was 59.7% in test [2] and 67.5% in test [3].
Consider `O=C(Nc1ccc(Br)cc1)OCC1CCSc2ccccc2C1=O` (stereo not drawn) [Example Compound 5, (4-Bromophenyl)carbamic acid 5-oxo-2,3,4,5-tetrahydrobenzo[b]thiepin-4-ylmethyl ester], for which the figures for the inhibition at 10 µM in test [1] and in test [3] were 36.2% and 53.8%, respectively.
